These results are taken from patent US11207331B2, “Agents, compositions and methods for enhancing neurological function” (University of Southern California, priority 2007, dated 2021).

Entries after “also recorded” stand apart in the source; their conditions may differ.

One test relates to phosphorylated tau. Put plainly: Phospho-tau immunoreactivity. The class given is in vivo, mouse.
Test [1] has as its system neural stem cells derived from human fetal cortex. Kind of test: BrdU chemiluminescence ELISA in human neural stem cells. Type of test: cell-based. Particulars: 250 and 500 nM, 24 hours. How it is done: Another experiment was performed to assess the neurogenic effects of THP administration on human neural stem cells. In this experiment, neural stem cells derived from human fetal cortex were treated with varying concentrations of THP [1-1000 nM] or with bFGF [20 ng/ml]+heparin [[…]] as a THP positive control. The proliferation marker, BrdU [10 uM] was added simultaneously with test molecules and the cells were incubated at 37° C. for 24 hours.

A further test concerns CNPase. Put plainly: CNPase expression (myelination marker). The class given is in vivo, mouse. How it is done: (§1) Further studies were conducted using a dosing regime of once a week for six months administered subcutaneously. Three and six months old 3×Tg-AD and age-matched non-Tg mice were chosen for the experiments, since AD pathology (Aβ) starts development at 3-month and abundant accumulation at 6-months. Allopregnanolone was subcutaneously (s.c.) administrated with 10 mg/kg once per week for 6 months. For neurogenesis and neurosurvival study, BrdU, IdU and CIdU were intraperitoneal (i.p.) injected at the first 5 days, mid 5 days and 5 days before sacrifice during 6-month treatment. After 6 months of allopregnanolone treatment, mice, at 9- and 12-month old, were sacrificed.
Immunofluorescent staining shown the immunoreactivity increased in CA1, entorhinal cortex, and primary somatosensory cortex.

Test [2] relates to Beta amyloid binding alcohol dehydrogenase (ABAD). Put plainly: ABAD expression (Western blot, antibody ERAB). Type of test: in vivo, mouse. The method, then: as §1
Beta amyloid binding alcohol dehydrogenase (ABAD) was probed with antibody ERAB (1:500, Abcam). […] Immunofluorescent staining using goat polyclonal anti-ERAB (Santa Cruz) confirmed the results obtained by Western Blot analysis. The concentration of ABAD immunoactive cells is less in THP-treated brains than in the brains treated with the vehicle.
(In general: In western blotting, separated proteins are transferred to a membrane and probed.)

The test system of test [3] is hippocampus of 3×TgAD mice. Put plainly: Long-term treatment with BrdU, IdU and CldU labelling. The class given is in vivo, mouse. Particulars: 10 mg/kg once a week for 6 months, begun at 3 or 6 months of age. How it is done:
In yet another study, THP (10 mg/kg once a week for 6 months) was administered to mice beginning at 3 months or 6 months of age. The cell proliferation marker, 5-bromodeoxyuridine (BrdU) was injected (100 mg/kg) one hour after initial THP treatment and once per day for the next four days to detect cell proliferation and cell survival over the six month treatment period. After 3 months treatment, the mice were injected 5 times with another nucleotide analog iododeoxyuridine (one per day). After 6 months treatment, the mice were injected with chlorodeoxyuridine (CldU) 5 times (once per day). Using specific antibodies, BrdU, IdU, and CldU incorporated cells will identify the 6 month survival, 3 month survival, and newly formed cells respectively. The mice were then sampled for biochemical, IHC, and flow cytometry assay. The results from mice with THP treatment initiated at 3 months old are shown in FIGS. 20B and 20C and initiated at 6 months old are shown in FIGS. 20D and 20E. The aim was to determine whether or not desensitization to THP was occurring.

The next test deals with hippocampal neurons. Kind of test: Total number of hippocampal neurons. The class given is cell-based, rat. Particulars: primary hippocampal neurons. The source says:
Having determined that THP increases the expression of the cell proliferating markers, a determination was sought as to whether the increase in cell proliferation markers translated into an increase in neuronal number. […] As shown in FIGS. 6A-6C, THP increases neuron number as assessed in MuLV-GFP infected mouse neurons. The effect of THP on HT-22 cells proliferation was detected on MuLV infected cells.

The subject of another test is β-amyloid. Put plainly: β-amyloid expression with antibody 6E10 (Western blot, immunostaining). The class given is in vivo, mouse. The conditions noted are these: for decrease of 56 kDa β-amyloid (Aβ*56) band intensity vs vehicle: cortex. The method, then:
In a pilot project to determine the impact of longterm exposure to THP, the impact of THP, 10 mg/kg s.c. thrice weekly for 3 months, on the progression of Alzheimer's disease (AD) pathology in 3-6 month old 3×TgAD mice was investigated. Mouse brain hemisphere sections were immunostained with specific antibody (6E10) against Aβ or HT7, which recognizes tau and PHF-tau between residue 159 and 163 and visualized with FITC conjugated second antibody.
In another experiment, THP (10 mg/kg/week, administered once a week for 6 months) was administered to 9- and 12-month male mice transgenic for Alzheimer's disease (3×Tg-AD). The 9 month old animals were started on THP at 3 months of age prior to the development of beta amyloid, whereas the 12 month old animals were begun at 6 months of age when beta amyloid had already begun to accumulate within neurons. Typically, the development of intraneuronal beta amyloid is seen in 6 and 9 month old animals and the development of plaques in 12 month old animals. Plaques are rarely seen in 9 month old animals.
Brain sections were stained with beta amyloid antibody 6E10.
THP (10 mg/kg) or vehicle was transdermal treated once a week to 3-month-old 3×Tg-AD mice for 6 months. Western blot analysis was conducted using brain protein from hippocampus with beta amyloid antibody 6E10, which recognizes the abnormally processed isoforms, as well as precursor forms of beta amyloid protein.
THP (10 mg/kg) or vehicle was subcutaneously administered once a month, once per week for 6 months, or once every other day for 3 months. Brain sections of treated mice were stained with beta amyloid antibody 6E10 which recognizes the abnormally processed isoforms, as well as precursor forms of beta amyloid protein.
as §1
Western blot analysis was conducted using brain protein from frontal-parietal-temporal cortex with beta amyloid antibody 6E10, which recognizes the abnormally processed isoforms, as well as precursor forms of beta amyloid protein. The expression of different forms of beta amyloid in 3×Tg-AD mice was characterized.

The mark [4] stands for this setting: 10 mg/kg once a week for six months.
[5] abbreviates: 3×Tg-AD mice, once a week for 6 months.

For the compound `CC(=O)[C@H]1CC[C@H]2[C@@H]3CC[C@H]4C[C@H](O)CC[C@]4(C)[C@H]3CC[C@]12C` [THP, 3α-hydroxy-5α-pregnan-20-one], the “immunoreactivity of phosphorylated tau” value with phosphorylated tau (setting [4]) was “decreases the immunoreactivity of phosphorylated tau”. The “AT8 immunoreactivity, immunoblotting” value in the test on phosphorylated tau (setting [5]) is “did not show a significantly reduction of AT8 immunoreactivity”. Besides, in the test with phosphorylated tau (setting [5]), the AT8 immunostaining result is “lower levels of immunoreactivity in THP-treated hippocampal CA1, cortex and amygdala”. In addition, the “BrdU chemiluminescence compared with positive control bFGF+heparin” value in test [1] was “consistently greater than the positive control bFGF+heparin”. The “BrdU chemiluminescence relative to vehicle control” value in test [1] was “significantly increased”. In addition, the “CNPase expression, Western blot” value in the test with CNPase (9-month nonTg mice and 3×TgAD mice) was “increased CNPase expression”; with CNPase (12-month 3×TgAD mice), “trended towards an increase”; in the test on CNPase (12-month non-Tg mice), “no significant difference”. Further, the entries for the “decrease in ABAD level relative to vehicle” value in test [2] (9-month 3×Tg mice) and in test [2] (12-month 3×Tg mice) were 30±4% and 20±7%, respectively. Moreover, the “responsiveness of the brain (desensitization)” value in test [3] was “still responsive to THP at 3 and 6 months”. Further, in the test with hippocampal neurons, the “increase in neuron number” value is on record as “approximately 30%”. Moreover, the “immunocytochemical detection of Abeta*56” value with β-amyloid (setting [4]) is on record as “substantially decreases Abeta*56 in hippocampal neurons”. Also, the 6E10 immunoreactivity entry in the test with β-amyloid (10 mg/kg s.c. every other day for 3 months or once a week for 6 months) was “significantly decreases 6E10 immunoreactivity”; in the test on β-amyloid (10 mg/kg s.c. once a month), “no effect”. Also, the “6E10 / intraneuronal Aβ immunoreactivity in brain sections” value in the test with β-amyloid (setting [5]) was “lower in THP-treated brain region CA1, Cortex and Amygdala than vehicle treated-brain, but not in the subiculum; also recorded: lower in THP-treated 9-month old 3×Tg-AD mice hippocampus, cortex, and amygdala than in vehicle-treated brain, but not in subiculum”. Further, the “AD pathology markers (Aβ 6E10, tau HT7 immunoreactivity)” value in the test with β-amyloid (3×TgAD mice, 10 mg/kg s.c. thrice weekly for 3 months) was “reduced the level of AD pathology markers in 3×TgAD mouse hippocampal CA1”. Moreover, in the test with β-amyloid (9-month 3×Tg-AD mice, 10 mg/kg s.c. once a week for 6 months), the “reduction of Aβ 6-mer 27 kDa band intensity” value stood at 35±10%. In addition, the “decrease of 56 kDa β-amyloid (Aβ*56) band intensity vs vehicle” value in the test on β-amyloid (9-month old 3×Tg-AD mice, 10 mg/kg s.c. once a week for 6 months) was determined as 25±4%; in the test with β-amyloid (12-month old 3×Tg-AD mice, 10 mg/kg s.c. once a week for 6 months), 15±4%. Moreover, the “Aβ 6-mer 27 kDa band intensity vs vehicle” value with β-amyloid (12-month old 3×Tg mice) was “no difference”. In addition, in the test on β-amyloid (transdermal 10 mg/kg once a week for 6 months, 9-month old 3×Tg-AD mice, hippocampus), the “decrease of 28 kDa β-amyloid oligomer band intensity vs vehicle” value came to 39±13%.
